Measurements from US20140066431A1, “Benzoxazepines as Inhibitors of PI3K/mTOR and Methods of Their Use and Manufacture” (Exelixis, Inc., priority 2010, published 2014).
Like-named read-outs stand apart in the source and are kept apart here.

Columns and labels:
[1] = target: PI3Kα (Homo sapiens, UniProt P42336); assay: PI3K biochemical assay (ATP consumption, luciferase-luciferin)
Protocol: (§1) PI3Kα activity is measured as the percent of ATP consumed following the kinase reaction using luciferase-luciferin-coupled chemiluminescence. Reactions were conducted in 384-well white, medium binding microtiter plates (Greiner). Kinase reactions were initiated by combining test compounds, ATP, substrate (PIP2), and kinase in a 20 μL volume in a buffer solution. The standard PI3Kalpha assay buffer is composed 50 mM Tris, pH 7.5, 1 mM EGTA, 10 mM MgCl2, 1 mM DTT and 0.03% CHAPS. The standard assay concentrations for enzyme, ATP, and substrate are 1.5 nM, 1 μM, and 10 μM, respectively. The reaction mixture was incubated at ambient temperature for approximately 2 h. Following the kinase reaction, a 10 μL aliquot of luciferase-luciferin mix (Promega Kinase-Glo) was added and the chemiluminescence signal measured using a Victor2 plate reader (Perkin Elmer). Total ATP consumption was limited to 40-60% and IC50 values of control compounds correlate well with literature references. Substituting PI3Kα with PI3Kβ, PI3Kγ, or PI3Kδ, the inhibitory activity of the compounds for the other isoforms of I3K were measured.

[2] = target: PI3Kγ (Homo sapiens, UniProt P48736); assay: PI3K biochemical assay, PI3Kγ; details: PIP2 as substrate
Protocol: as §1

[3] = test system: NCI-H460 (PI3K-E545K/KRAS-Q61H); assay: pAKT (T308) ELISA assay, NCI-H460; assay type: cell-based; details: Homo sapiens, PI3KαE545K, read-out: Cellular pAKT (T308) IC50 NCI-H460
Protocol: (§2) In another embodiment, the pAKT ELISA Assay was performed by seeding cells onto 96-well plates (Corning, 3904) in their respective growth media at the densities listed in Table 3. Cells were incubated at 37° C., 5% CO2 for 48 h (except MDA-MB-453 cells which were cultured in the absence of CO2). Compounds were serially diluted in DMSO and subsequently diluted in serum-free DMEM. Test compounds were added to cells in serum-free DMEM at a final concentration of 0.3% DMSO and incubated for 3 h. Cells were lysed with 130 μL of ice-cold RIPA lysis buffer (50 mM Tris-HCl, pH 7.5; 0.5% sodium deoxycholic acid; 1% Triton X-100; 0.1% SDS; 150 mM NaCl) with protease and phosphatase inhibitors (1 mM EDTA, 1 mM NaF, 20 mM β-glycerophosphate, 1 mM Na-orthovanadate, Complete-Mini EDTA-free, Roche, 11836170001, and Phosphatase Inhibitor Cocktail I, Sigma, P2850), directly in 96-well plates. Cells were lysed on ice for 60-120 min at 4° C. The supernatants were added directly to capture ELISA plates previously pre-coated with rabbit anti-AKT capture antibody. […] The wells were measured for luminescence using a Wallac plate reader at wavelength of 560 nm. After normalization of pAKT signal to total AKT1 signal, IC50 values were determined relative to the DMSO-treated control.

[4] = test system: HCT 116 (PI3Kα H1047R); assay: pAKT (T308) ELISA assay, HCT 116; assay type: cell-based; details: Homo sapiens, PI3KαH1047R, IGF1, read-out: Cellular pAKT (T308) IC50 HCT 116
Protocol: as §2

[5] = test system: SK-OV-3 (PI3Kα H1047R); assay: pAKT (T308) ELISA assay, SK-OV-3; assay type: cell-based; details: Homo sapiens, PI3KαH1047R, IGF1, read-out: Cellular pAKT (T308) IC50 SK-OV-3
Protocol: as §2

[6] = test system: PI3Kα-mutated models; assay: Growth factor induced AKT phosphorylation compared across PI3Kα-mutated models; assay type: cell-based; details: cell lines of Table 6
Protocol: Cells were incubated at 37° C., 5% CO2 for 48 h (except MDA-MB-453 cells which were cultured in the absence of CO2). Compounds were serially diluted in DMSO and subsequently diluted in serum-free DMEM. Test compounds were added to cells in serum-free DMEM at a final concentration of 0.3% DMSO and incubated for 3 h. Cells were lysed with 130 μL of ice-cold RIPA lysis buffer (50 mM Tris-HCl, pH 7.5; 0.5% sodium deoxycholic acid; 1% Triton X-100; 0.1% SDS; 150 mM NaCl) with protease and phosphatase inhibitors (1 mM EDTA, 1 mM NaF, 20 mM β-glycerophosphate, 1 mM Na-orthovanadate, Complete-Mini EDTA-free, Roche, 11836170001, and Phosphatase Inhibitor Cocktail I, Sigma, P2850), directly in 96-well plates. Cells were lysed on ice for 60-120 min at 4° C. The supernatants were added directly to capture ELISA plates previously pre-coated with rabbit anti-AKT capture antibody. ELISA assays for pAKT(T308) and total AKT were performed with the pAKT(T308) ELISA kit (Cell Signaling Technology, 7144) and AKT1 ELISA kit (Cell Signaling Technology, 7142). For the pAKT(T308) ELISA, 85 μL of cell lysate was added to each well. For the total AKT1 ELISA, 15 μL of cell lysate and 85 μL of Starting Block buffer (Pierce, 37543) were added to each well.
Cells were incubated at 37° C., 5% CO2 for 48 h (except MDA-MB-453 cells which were cultured in the absence of CO2). […]

Sequence of PI3Kα (P42336 whole entry): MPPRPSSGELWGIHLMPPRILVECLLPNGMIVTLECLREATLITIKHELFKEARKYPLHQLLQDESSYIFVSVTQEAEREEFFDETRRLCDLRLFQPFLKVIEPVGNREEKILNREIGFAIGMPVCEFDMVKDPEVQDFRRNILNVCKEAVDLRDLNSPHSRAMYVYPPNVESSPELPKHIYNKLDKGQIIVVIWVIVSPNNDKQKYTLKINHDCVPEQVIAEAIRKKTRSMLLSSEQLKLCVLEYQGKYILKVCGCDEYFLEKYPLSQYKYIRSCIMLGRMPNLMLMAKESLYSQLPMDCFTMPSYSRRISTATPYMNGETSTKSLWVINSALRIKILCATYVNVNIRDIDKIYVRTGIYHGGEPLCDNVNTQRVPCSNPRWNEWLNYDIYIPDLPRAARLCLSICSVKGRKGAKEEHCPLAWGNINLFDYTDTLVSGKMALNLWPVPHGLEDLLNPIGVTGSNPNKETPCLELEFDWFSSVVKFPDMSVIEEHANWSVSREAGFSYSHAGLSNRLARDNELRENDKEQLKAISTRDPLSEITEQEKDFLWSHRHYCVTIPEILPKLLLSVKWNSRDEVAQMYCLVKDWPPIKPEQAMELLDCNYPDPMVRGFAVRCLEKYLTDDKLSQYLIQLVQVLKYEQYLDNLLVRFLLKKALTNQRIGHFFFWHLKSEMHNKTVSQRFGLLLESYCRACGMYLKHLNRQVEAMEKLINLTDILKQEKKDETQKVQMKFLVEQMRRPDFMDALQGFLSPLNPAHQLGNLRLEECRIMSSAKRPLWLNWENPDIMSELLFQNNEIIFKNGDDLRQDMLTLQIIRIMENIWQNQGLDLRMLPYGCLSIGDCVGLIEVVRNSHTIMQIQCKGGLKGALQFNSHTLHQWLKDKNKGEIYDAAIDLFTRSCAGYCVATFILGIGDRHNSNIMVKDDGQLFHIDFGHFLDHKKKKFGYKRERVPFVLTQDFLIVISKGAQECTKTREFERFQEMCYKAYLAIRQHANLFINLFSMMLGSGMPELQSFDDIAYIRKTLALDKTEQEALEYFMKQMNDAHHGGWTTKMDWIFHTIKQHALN
Sequence of PI3Kα (P27986 whole entry partner): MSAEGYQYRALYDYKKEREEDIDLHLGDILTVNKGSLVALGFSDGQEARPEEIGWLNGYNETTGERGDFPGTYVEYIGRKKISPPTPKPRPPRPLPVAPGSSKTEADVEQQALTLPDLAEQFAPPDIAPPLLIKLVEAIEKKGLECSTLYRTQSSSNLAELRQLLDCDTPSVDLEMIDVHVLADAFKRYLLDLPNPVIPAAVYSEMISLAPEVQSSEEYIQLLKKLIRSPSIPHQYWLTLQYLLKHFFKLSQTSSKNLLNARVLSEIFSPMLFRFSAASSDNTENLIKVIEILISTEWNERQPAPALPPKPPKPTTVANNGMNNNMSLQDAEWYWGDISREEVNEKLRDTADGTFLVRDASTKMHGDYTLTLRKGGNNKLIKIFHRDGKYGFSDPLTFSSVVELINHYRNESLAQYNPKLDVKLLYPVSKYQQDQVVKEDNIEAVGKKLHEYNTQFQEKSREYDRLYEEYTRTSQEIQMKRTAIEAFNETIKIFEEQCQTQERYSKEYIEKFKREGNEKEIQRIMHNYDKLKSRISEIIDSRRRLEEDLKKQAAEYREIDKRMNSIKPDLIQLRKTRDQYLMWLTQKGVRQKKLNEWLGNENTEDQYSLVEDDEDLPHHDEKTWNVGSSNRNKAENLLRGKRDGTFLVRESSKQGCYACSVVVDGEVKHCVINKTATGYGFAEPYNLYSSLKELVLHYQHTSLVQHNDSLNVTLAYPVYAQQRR
Sequence of PI3Kγ (P48736 whole entry): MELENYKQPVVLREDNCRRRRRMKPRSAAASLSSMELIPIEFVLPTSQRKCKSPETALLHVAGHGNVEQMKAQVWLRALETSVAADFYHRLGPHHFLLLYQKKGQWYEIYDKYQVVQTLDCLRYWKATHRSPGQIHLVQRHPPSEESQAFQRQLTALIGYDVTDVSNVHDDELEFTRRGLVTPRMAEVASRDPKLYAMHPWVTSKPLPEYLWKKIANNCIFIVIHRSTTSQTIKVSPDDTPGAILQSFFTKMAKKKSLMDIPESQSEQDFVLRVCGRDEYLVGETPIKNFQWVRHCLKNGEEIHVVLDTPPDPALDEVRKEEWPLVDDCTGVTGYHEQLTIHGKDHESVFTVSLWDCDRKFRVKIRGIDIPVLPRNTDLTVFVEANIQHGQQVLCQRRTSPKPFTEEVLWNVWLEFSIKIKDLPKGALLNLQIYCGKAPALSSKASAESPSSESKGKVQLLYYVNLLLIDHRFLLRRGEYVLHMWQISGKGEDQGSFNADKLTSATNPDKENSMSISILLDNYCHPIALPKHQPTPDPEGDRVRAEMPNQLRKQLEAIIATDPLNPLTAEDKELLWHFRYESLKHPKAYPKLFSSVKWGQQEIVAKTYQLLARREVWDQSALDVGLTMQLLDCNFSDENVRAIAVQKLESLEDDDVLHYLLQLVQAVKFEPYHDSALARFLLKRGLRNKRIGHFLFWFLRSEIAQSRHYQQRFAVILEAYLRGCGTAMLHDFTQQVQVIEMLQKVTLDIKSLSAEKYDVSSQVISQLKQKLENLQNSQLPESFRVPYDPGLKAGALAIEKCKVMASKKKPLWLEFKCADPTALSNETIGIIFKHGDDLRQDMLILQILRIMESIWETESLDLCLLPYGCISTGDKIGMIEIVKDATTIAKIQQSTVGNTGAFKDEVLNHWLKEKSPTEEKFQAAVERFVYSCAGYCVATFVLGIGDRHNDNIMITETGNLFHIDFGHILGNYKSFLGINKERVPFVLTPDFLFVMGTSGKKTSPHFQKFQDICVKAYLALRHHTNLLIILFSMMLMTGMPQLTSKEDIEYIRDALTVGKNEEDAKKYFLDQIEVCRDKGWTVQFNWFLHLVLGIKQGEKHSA

IC50 ([1]; PIP2 as substrate, read-out: PI3K biochemical IC50 PI3Kα): 1.78 µM
IC50 ([1]; Table 5, read-out: Biochemical IC50 PI3Kα): 1.78 µM
IC50 [2]: 1.68 µM
IC50 [3]: > 30 µM
IC50 [4]: 26.4 µM
IC50 [5]: > 30 µM
SMILES: Cc1cc(C(C)Nc2ccccc2)c2nc(N3CCOCC3)cc(=O)n2c1 (stereo not shown) [TGX-221, 7-methyl-2-(4-morpholinyl)-9-[1-(phenylamino)ethyl]-4H-pyrido[1,2-a]pyrimidin-4-one]
effect on PI3Kα mediated activity in these cell models [6]: no effect
